Measurements reported in PubChem BioAssay (NCI).
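These data come from cells grown in 96-well plates and exposed to compound for 48 hours at five concentrations. The concentration for 50% growth inhibition is given as GI50. TGI denotes the concentration required for complete inhibition of growth.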

Legend:
Experiment in all cases: NCI-60 cell line screen, 48 h
SK-OV-3 ovarian = test system: SK-OV-3 ovarian
HS 578T breast = test system: HS 578T breast
SW-620 colon = test system: SW-620 colon
U251 CNS = test system: U251 CNS
IGROV1 ovarian = test system: IGROV1 ovarian
HCC-2998 colon = test system: HCC-2998 colon
OVCAR-3 ovarian = test system: OVCAR-3 ovarian
MALME-3M melanoma = test system: MALME-3M melanoma
CAKI-1 renal = test system: CAKI-1 renal
A549 NSCLC = test system: A549 NSCLC
T-47D breast = test system: T-47D breast
MDA-MB-231 breast = test system: MDA-MB-231 breast
EKVX NSCLC = test system: EKVX NSCLC
RPMI-8226 leukemia = test system: RPMI-8226 leukemia
SF-295 CNS = test system: SF-295 CNS
NCI/ADR-RES ovarian = test system: NCI/ADR-RES ovarian
SN12C renal = test system: SN12C renal
TK-10 renal = test system: TK-10 renal
ACHN renal = test system: ACHN renal
M14 melanoma = test system: M14 melanoma
COLO 205 colon = test system: COLO 205 colon
PC-3 prostate = test system: PC-3 prostate
SK-MEL-2 melanoma = test system: SK-MEL-2 melanoma
HCT-15 colon = test system: HCT-15 colon
MOLT-4 leukemia = test system: MOLT-4 leukemia
NCI-H226 lung = test system: NCI-H226 lung
NCI-H522 lung = test system: NCI-H522 lung
NCI-H23 lung = test system: NCI-H23 lung
MCF7 breast = test system: MCF7 breast
OVCAR-8 ovarian = test system: OVCAR-8 ovarian
NCI-H460 lung = test system: NCI-H460 lung
A498 renal = test system: A498 renal
UACC-62 melanoma = test system: UACC-62 melanoma
HOP-92 NSCLC = test system: HOP-92 NSCLC
K-562 leukemia = test system: K-562 leukemia
UO-31 renal = test system: UO-31 renal
OVCAR-5 ovarian = test system: OVCAR-5 ovarian
KM12 colon = test system: KM12 colon
SNB-19 CNS = test system: SNB-19 CNS
HOP-62 NSCLC = test system: HOP-62 NSCLC
HT29 colon = test system: HT29 colon
MDA-MB-435 = test system: MDA-MB-435
HL-60(TB) leukemia = test system: HL-60(TB) leukemia
LOX IMVI melanoma = test system: LOX IMVI melanoma
SK-MEL-28 melanoma = test system: SK-MEL-28 melanoma
HCT-116 colon = test system: HCT-116 colon
SF-539 CNS = test system: SF-539 CNS
UACC-257 melanoma = test system: UACC-257 melanoma
OVCAR-4 ovarian = test system: OVCAR-4 ovarian
DU-145 prostate = test system: DU-145 prostate
SK-MEL-5 melanoma = test system: SK-MEL-5 melanoma
786-0 renal = test system: 786-0 renal
BT-549 breast = test system: BT-549 breast
SNB-75 CNS = test system: SNB-75 CNS
RXF 393 renal = test system: RXF 393 renal
SR leukemia = test system: SR leukemia
SF-268 CNS = test system: SF-268 CNS

O=C(COC(=O)[C@H](C[Se][Se]C[C@H](NC(=O)c1ccc(Br)cc1F)C(=O)OCC(=O)c1ccc(F)cc1)NC(=O)c1ccc(Br)cc1F)c1ccc(F)cc1
GI50 (SK-OV-3 ovarian): 0.415 µM | TGI (SK-OV-3 ovarian): 1.31 µM | GI50 (HS 578T breast): 0.298 µM | TGI (HS 578T breast): 1.31 µM | GI50 (SW-620 colon): 0.878 µM | TGI (SW-620 colon): 2.43 µM | GI50 (U251 CNS): 0.696 µM | TGI (U251 CNS): 1.92 µM | GI50 (IGROV1 ovarian): 1.35 µM | TGI (IGROV1 ovarian): 3 µM | GI50 (HCC-2998 colon): 1.39 µM | TGI (HCC-2998 colon): 3.56 µM | GI50 (OVCAR-3 ovarian): 0.479 µM | TGI (OVCAR-3 ovarian): 1.27 µM | GI50 (MALME-3M melanoma): 0.639 µM | TGI (MALME-3M melanoma): 1.64 µM | GI50 (CAKI-1 renal): 0.716 µM | TGI (CAKI-1 renal): 2.66 µM | GI50 (A549 NSCLC): 1.03 µM | TGI (A549 NSCLC): 4.45 µM | GI50 (T-47D breast): 1.41 µM | TGI (T-47D breast): 4.08 µM | GI50 (MDA-MB-231 breast): 1.65 µM | TGI (MDA-MB-231 breast): 4.03 µM | GI50 (EKVX NSCLC): 0.517 µM | TGI (EKVX NSCLC): 1.52 µM | GI50 (RPMI-8226 leukemia): 0.132 µM | TGI (RPMI-8226 leukemia): 0.593 µM | GI50 (SF-295 CNS): 0.0511 µM | TGI (SF-295 CNS): 0.18 µM | GI50 (NCI/ADR-RES ovarian): 0.821 µM | TGI (NCI/ADR-RES ovarian): 2.39 µM | GI50 (SN12C renal): 1.27 µM | TGI (SN12C renal): 2.98 µM | GI50 (TK-10 renal): 0.341 µM | TGI (TK-10 renal): 0.9 µM | GI50 (ACHN renal): 1.65 µM | TGI (ACHN renal): 4.18 µM | GI50 (M14 melanoma): 1.08 µM | TGI (M14 melanoma): 2.9 µM | GI50 (COLO 205 colon): 1.67 µM | TGI (COLO 205 colon): 3.95 µM | GI50 (PC-3 prostate): 0.375 µM | TGI (PC-3 prostate): 1.38 µM | GI50 (SK-MEL-2 melanoma): 1.66 µM | TGI (SK-MEL-2 melanoma): 4.74 µM | GI50 (HCT-15 colon): 1.34 µM | TGI (HCT-15 colon): 4.03 µM | GI50 (MOLT-4 leukemia): 3.54 µM | TGI (MOLT-4 leukemia): 71.3 µM | GI50 (NCI-H226 lung): 1.02 µM | TGI (NCI-H226 lung): 3.63 µM | GI50 (NCI-H522 lung): 2.2 µM | TGI (NCI-H522 lung): 4.38 µM | GI50 (NCI-H23 lung): 0.692 µM | TGI (NCI-H23 lung): 2.7 µM | GI50 (MCF7 breast): 0.984 µM | TGI (MCF7 breast): 3.06 µM | GI50 (OVCAR-8 ovarian): 0.408 µM | TGI (OVCAR-8 ovarian): 1.61 µM | GI50 (NCI-H460 lung): 0.345 µM | TGI (NCI-H460 lung): 1.27 µM | GI50 (A498 renal): 0.306 µM | TGI (A498 renal): 1.04 µM | GI50 (UACC-62 melanoma): 1.69 µM | TGI (UACC-62 melanoma): 4.83 µM | GI50 (HOP-92 NSCLC): 2.73 µM | TGI (HOP-92 NSCLC): 6.66 µM | GI50 (K-562 leukemia): 2.83 µM | TGI (K-562 leukemia): > 26.4 µM | GI50 (UO-31 renal): 1.11 µM | TGI (UO-31 renal): 2.79 µM | GI50 (OVCAR-5 ovarian): 0.951 µM | TGI (OVCAR-5 ovarian): 2.72 µM | GI50 (KM12 colon): 0.301 µM | TGI (KM12 colon): 0.793 µM | GI50 (SNB-19 CNS): 0.444 µM | TGI (SNB-19 CNS): 1.63 µM | GI50 (HOP-62 NSCLC): 0.654 µM | TGI (HOP-62 NSCLC): 2.24 µM | GI50 (HT29 colon): 0.916 µM | TGI (HT29 colon): > 58.7 µM | GI50 (MDA-MB-435): 1.89 µM | TGI (MDA-MB-435): 4.3 µM | GI50 (HL-60(TB) leukemia): 0.425 µM | TGI (HL-60(TB) leukemia): > 100 µM | GI50 (LOX IMVI melanoma): 1.48 µM | TGI (LOX IMVI melanoma): 3.67 µM | GI50 (SK-MEL-28 melanoma): 0.631 µM | TGI (SK-MEL-28 melanoma): 1.63 µM | GI50 (HCT-116 colon): 1.02 µM | TGI (HCT-116 colon): 3.52 µM | GI50 (SF-539 CNS): 0.684 µM | TGI (SF-539 CNS): 1.8 µM | GI50 (UACC-257 melanoma): 1.82 µM | TGI (UACC-257 melanoma): 4.39 µM | GI50 (OVCAR-4 ovarian): 0.689 µM | TGI (OVCAR-4 ovarian): 1.54 µM | GI50 (DU-145 prostate): 0.385 µM | TGI (DU-145 prostate): 1.08 µM | GI50 (SK-MEL-5 melanoma): 1.23 µM | TGI (SK-MEL-5 melanoma): 4.27 µM | GI50 (786-0 renal): 0.9 µM | TGI (786-0 renal): 2.23 µM | GI50 (BT-549 breast): 0.603 µM | TGI (BT-549 breast): 1.31 µM | GI50 (SNB-75 CNS): 0.354 µM | TGI (SNB-75 CNS): 0.964 µM | GI50 (RXF 393 renal): 0.422 µM | TGI (RXF 393 renal): 1.5 µM | GI50 (SR leukemia): 0.92 µM | TGI (SR leukemia): > 43.5 µM | GI50 (SF-268 CNS): 0.52 µM | TGI (SF-268 CNS): 1.18 µM
